Measured values as given in patent US9828338B2, “Carbamate derivatives of lactam based N-acylethanolamine acid amidase (NAAA) inhibitors” (The Regents of the University of California, priority 2013, dated 2017).
Entries after “also recorded” stand apart in the source; their conditions may differ.

Assays:
Rat AC (r-AC) = molecular target: T1, Rat AC (r-AC) (Rattus norvegicus, UniProt Q6P7S1); assay: Rat AC (r-AC) assay; type: biochemical
T1 construct: V5 (C); His (C); made in house; host or cells: HEK293 cells transfected with pEF6-rAC-V5/His, G418 selected; soluble lysosomal fraction
T1 sequence (Q6P7S1 21-394): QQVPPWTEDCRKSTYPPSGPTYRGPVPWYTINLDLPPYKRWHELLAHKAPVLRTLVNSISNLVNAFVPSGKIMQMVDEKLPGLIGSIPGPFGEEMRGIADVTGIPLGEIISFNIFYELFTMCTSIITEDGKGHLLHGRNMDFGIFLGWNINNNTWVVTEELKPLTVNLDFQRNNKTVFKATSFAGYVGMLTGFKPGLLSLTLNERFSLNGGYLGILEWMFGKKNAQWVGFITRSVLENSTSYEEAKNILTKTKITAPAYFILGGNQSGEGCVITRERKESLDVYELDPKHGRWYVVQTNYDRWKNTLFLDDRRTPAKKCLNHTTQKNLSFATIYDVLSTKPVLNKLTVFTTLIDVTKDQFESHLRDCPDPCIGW
Procedure: The selectivity of selected compounds versus Acid Ceramidase (AC) was determined.
Rat AC (r-AC) was cloned from a brain cDNA library using primers based on the sequence obtained from the National Center for Biotechnology Information (NCBI) database: 5′rAC (5′-[…]-3′) (SEQ ID NO:1) and 3′rAC (5′-[…]-3′) (SEQ ID NO:2). The PCR (High Fidelity PCR Master, Roche) product was subcloned into a pEF6-V5/His vector (Invitrogen) to construct a mammalian expression vector encoding V5/His-tagged rat AC. HEK293 cells were transfected with pEF6-rAC-V5/His using Super-Fect reagent (Qiagen) and screened with G418 (0.3 mg/mL). Cells were suspended in 20 mM Tris HCl (pH 7.5) containing 0.32M sucrose, sonicated and centrifuged at 800×g for 15 minutes at 4° C. The supernatants were centrifuged again at 12,000×g for 30 minutes at 4° C. The pellets were suspended in phosphate-buffered saline (PBS) and subjected to 2 freeze-thaw cycles at −80° C. The suspensions were centrifuged at 105,000×g for 1 hour at 4° C. The supernatants containing recombinant AC were kept at −80° C. until use. Protein concentration was measured using the bicinchoninic acid (BCA) assay (Pierce). Recombinant rat AC (50 μg) was preincubated with inhibitors (final DMSO concentration 1%) in assay buffer (100 mM sodium phosphate, 0.1% Nonidet P-40, 150 mM NaCl, 3 mM DTT, 100 mM sodium citrate, pH 4.5) for 30 minutes at 37° C. Reactions were started by the addition of 100 μM N-lauroyl ceramide (Nu-Chek Prep, Elysian, Minn.) and carried on for 30 minutes at 37° C. Reactions were stopped by addition of a mixture of chloroform/methanol (2:1, vol/vol) containing 1 nmol of heptadecanoic acid (HDA; NuChek Prep). The organic phases were collected, dried under N2, and analyzed by LC-MS in the negative-ion mode using […] (HDA) as internal standard (m/z=199 for lauric acid, m/z=269 for HDA). […]. The column temperature was 50° C. Electrospray ionization (ESI) was in the negative mode, capillary voltage as 4 kV, and fragmentor voltage was 100 V. N2 was used as drying gas at a flow rate of 13 L/min and a temperature of 350° C. Nebulizer pressure was set at 60 psi. We monitored [M-H]− in the selected-ion monitoring (SIM) mode using HDA as internal standard. Calibration curves were generated using commercial lauric acid (Nu-Chek Prep; m/z=199).

mice [1] = assay: Carrageenan-induced inflammation (paw edema, heat hyperalgesia); type: in vivo; conditions: compound 5 3-30 mg/kg p.o.
mice [2] = assay: Carrageenan-induced lung inflammation; type: in vivo; conditions: carrageenan 2%
Procedure: The chest was carefully opened and the pleural cavity was rinsed with 1 mL of saline solution containing heparin (5 U/mL). The exudate and washing solution were removed by aspiration and the total volume of the fluid was measured. Any exudate that was contaminated with blood was discarded. The amount of exudate was calculated by subtracting the volume of washing fluid injected from the total volume recovered.

mice [3] = assay: LPS-induced inflammation (lung); conditions: for neutrophil migration/infiltration into lung tissue: 6 h and 24 h
Procedure: Mice were anesthetized with ketamine and xylazine (100 and 10 mg/kg, respectively), and were subjected to intranasal instillation of LPS (1 μg/μL) or vehicle (saline 0.9%); the volume used was 1 μL/g body weight. In order to avoid drawing, the weight of each animal was divided by three; therefore each mouse received the respective volume of LPS or vehicle. Ex: animal 1 (24 g) received 3 times an intranasal instillation of 8 μL of LPS solution or vehicle.
The bronchoalveolar lavage and lung samples were collected 6 h or 24 h after the induction of inflammation.

r-NAAA = molecular target: T2, r-NAAA (Rattus norvegicus, UniProt Q5KTC7); assay: UPLC/MS r-NAAA assay; type: biochemical
T2 construct: Lysosomal NAAA protein preparation was obtained by homogenizing male Sprague-Dawley rat lungs; tissue Charles River (animals); host or cells: male Sprague-Dawley rat lung, soluble lysosomal fraction
T2 sequence (Q5KTC7 34-362): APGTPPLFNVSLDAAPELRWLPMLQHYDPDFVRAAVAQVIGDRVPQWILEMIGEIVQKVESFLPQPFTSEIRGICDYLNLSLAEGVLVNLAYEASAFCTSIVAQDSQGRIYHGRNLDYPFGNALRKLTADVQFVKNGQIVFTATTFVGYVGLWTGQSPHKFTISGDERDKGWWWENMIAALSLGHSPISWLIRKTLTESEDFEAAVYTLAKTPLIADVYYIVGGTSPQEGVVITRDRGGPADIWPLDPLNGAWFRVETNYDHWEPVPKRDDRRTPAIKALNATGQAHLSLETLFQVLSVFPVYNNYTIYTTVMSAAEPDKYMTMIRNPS

human NAAA = molecular target: T3, human NAAA (Homo sapiens, UniProt Q02083); assay: Fluorogenic h-NAAA assay; type: biochemical
T3 construct: made in house; host or cells: HEK293 cells, stably transfected; soluble lysosomal fraction used as enzyme source
T3 sequence (Q02083 29-359): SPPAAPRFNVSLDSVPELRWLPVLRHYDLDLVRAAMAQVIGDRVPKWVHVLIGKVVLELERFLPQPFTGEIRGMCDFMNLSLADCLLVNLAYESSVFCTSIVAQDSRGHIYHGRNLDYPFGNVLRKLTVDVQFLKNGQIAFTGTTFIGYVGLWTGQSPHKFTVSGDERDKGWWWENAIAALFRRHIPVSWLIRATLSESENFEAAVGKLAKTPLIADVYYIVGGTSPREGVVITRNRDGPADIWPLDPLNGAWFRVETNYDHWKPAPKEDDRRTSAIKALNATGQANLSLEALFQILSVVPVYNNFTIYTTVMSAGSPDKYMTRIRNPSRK
Procedure: Hek293 cells stably transfected with the human NAAA coding sequence cloned from a human spleen cDNA library were used as enzyme source. Recombinant HEK-hNAAA pellets were resuspended in homogenizing buffer, and sonicated. Samples were centrifuged at 800×g for 15 min at 4° C. and the resultant supernatants were then ultracentrifuged at 12,000×g for 30 min at 4° C. The pellets were resuspended in PBS pH 7.4 on ice and subjected to a freeze/thaw cycle at −80° C. The suspension was finally centrifuged at 105,000×g for 1 h at 4° C. Protein concentration was measured and samples aliquoted and stored at −80° C. until use.
The assay was run in Optiplate 96-wells black plates, in a total reaction volume of 200 μL. NAAA protein preparation (4.0 μg) was pre-incubated for 10 min with various concentrations of test compounds or vehicle control (5% DMSO) in 100 mM citrate/phosphate buffer (pH 4.5) containing 3.0 mM DTT, 0.1% Triton X-100, 0.05% BSA, 150 mM NaCl. N-(4-methyl-2-oxo-chromen-7-yl)-hexadecanamide was used as a substrate (5.0 μM) and the reaction carried over for 30 min at 37° C. The samples were then read in a Perkin Elmer Envision plate reader using an excitation wavelength of 360 nm and emission 460 nm. IC50 values were calculated by non-linear regression analysis of log [concentration]/inhibition curves using GraphPad Prism 5 (GraphPad Software Inc., CA—USA) applying a standard slope curve fitting.

[4] = compound 5 30 mg/kg p.o., dexamethasone 0.5 mg/kg i.p.

IC50 (Rat AC (r-AC); read-out: r-AC UPLC/MS assay IC50) [nM]	SMILES	heat hyperalgesia (mice [1])	paw edema (mice [1])	TNF-alpha concentration in pulmonary exudate (mice [2]; [4])	number of leukocytes (neutrophils) in the pulmonary exudate (FACS) (mice [2]; [4])	myeloperoxidase (MPO) activity in lung tissue (mice [2]; compound 5 0.1-30 mg/kg p.o., dexamethasone 0.5 mg/kg i.p.)	increase of TNF-α in the pulmonary exudate (mice [2]; compound 5 0.1-30 mg/kg po)	LPS induced increase of IL-6, TNF-α and MIP-2/CXCL2 in tissue and BAL (mice [3]; 30 mg/kg po, at 6 hr)	neutrophil migration/infiltration into lung tissue (mice [3]; LPS, 30 mg/kg po, listed as Compound 5, 30 mg/kg)	neutrophil migration/infiltration into lung tissue (mice [3]; LPS, 30 mg/kg po, listed as compound 5, 30 mg/kg)	production of cytokines/chemokines in BAL and lung tissue (mice [3]; LPS, compound 5 30 mg/kg p.o., 30 min)	IC50 (r-NAAA) [nM]	IC50 (human NAAA) [nM]	inhibition at 10 µM (Rat AC (r-AC); read-out: r-AC UPLC/MS assay % inhib.) [%]
12500	O=C(N[C@H]1CNC1=O)OCCCCC1CCCCC1 [Example 5, 4-Cyclohexylbutyl-N-[(3S)-2-oxoazetidin-3-yl]-carbamate]	reduced; also recorded: markedly attenuated	reduced; also recorded: markedly attenuated	normalizes	normalized	normalizes; also recorded: dose-dependently normalized	dose-dependently normalized	significantly reduced	prevented	prevents	prevents			
	C[C@@H]1NC(=O)[C@H]1NC(=O)OCc1ccc(C2CCCCC2)cc1 [Example 74, (4-Cyclohexylphenyl)-methyl-N-[(2S,3S)-2-methyl-4-oxo-azetidin-3-yl]-carbamate]											46	107	20
